Test results: PMC9329436, “Optimization of the 4-anilinoquin(az)oline scaffold as epidermal growth factor receptor (EGFR) inhibitors for chordoma utilizing a toxicology profiling assay platform” (Scientific Reports, 2022)
Like-named read-outs stand apart in the source and are kept apart here.

Legend:
Type in all cases: biochemical
[1] = target: T1, 320 wild-type protein kinases (Homo sapiens, UniProt O60285); settings: singlicate
T1 sequence (O60285 1-661): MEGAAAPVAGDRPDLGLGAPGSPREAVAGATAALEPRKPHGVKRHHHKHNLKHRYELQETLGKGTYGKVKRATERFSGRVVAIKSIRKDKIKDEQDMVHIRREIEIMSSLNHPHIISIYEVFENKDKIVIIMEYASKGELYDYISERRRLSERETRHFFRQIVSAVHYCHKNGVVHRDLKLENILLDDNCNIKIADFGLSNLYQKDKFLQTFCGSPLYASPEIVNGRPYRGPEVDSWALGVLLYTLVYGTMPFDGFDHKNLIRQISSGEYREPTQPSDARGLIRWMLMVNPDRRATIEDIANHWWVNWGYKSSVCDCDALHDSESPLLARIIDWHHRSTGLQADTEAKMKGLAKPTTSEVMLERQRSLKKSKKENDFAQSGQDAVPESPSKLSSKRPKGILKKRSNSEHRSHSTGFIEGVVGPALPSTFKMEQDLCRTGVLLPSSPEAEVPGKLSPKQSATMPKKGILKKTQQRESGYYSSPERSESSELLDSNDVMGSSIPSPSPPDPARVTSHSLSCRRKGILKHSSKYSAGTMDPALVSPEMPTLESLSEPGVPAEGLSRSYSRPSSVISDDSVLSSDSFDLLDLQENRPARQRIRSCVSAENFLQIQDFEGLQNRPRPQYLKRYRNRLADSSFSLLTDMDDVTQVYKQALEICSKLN
Excerpt: (§1) Table S4. Profiling of two compounds at two concentrations against 320 wild-type protein kinases; singlicate measurement; Residual activities (% of control).

[2] = target: 320 wild-type protein kinases (Homo sapiens, UniProt Q7KZI7); settings: singlicate
Chain of 320 wild-type protein kinases (Homo sapiens, UniProt Q7KZI7) (Q7KZI7 whole entry): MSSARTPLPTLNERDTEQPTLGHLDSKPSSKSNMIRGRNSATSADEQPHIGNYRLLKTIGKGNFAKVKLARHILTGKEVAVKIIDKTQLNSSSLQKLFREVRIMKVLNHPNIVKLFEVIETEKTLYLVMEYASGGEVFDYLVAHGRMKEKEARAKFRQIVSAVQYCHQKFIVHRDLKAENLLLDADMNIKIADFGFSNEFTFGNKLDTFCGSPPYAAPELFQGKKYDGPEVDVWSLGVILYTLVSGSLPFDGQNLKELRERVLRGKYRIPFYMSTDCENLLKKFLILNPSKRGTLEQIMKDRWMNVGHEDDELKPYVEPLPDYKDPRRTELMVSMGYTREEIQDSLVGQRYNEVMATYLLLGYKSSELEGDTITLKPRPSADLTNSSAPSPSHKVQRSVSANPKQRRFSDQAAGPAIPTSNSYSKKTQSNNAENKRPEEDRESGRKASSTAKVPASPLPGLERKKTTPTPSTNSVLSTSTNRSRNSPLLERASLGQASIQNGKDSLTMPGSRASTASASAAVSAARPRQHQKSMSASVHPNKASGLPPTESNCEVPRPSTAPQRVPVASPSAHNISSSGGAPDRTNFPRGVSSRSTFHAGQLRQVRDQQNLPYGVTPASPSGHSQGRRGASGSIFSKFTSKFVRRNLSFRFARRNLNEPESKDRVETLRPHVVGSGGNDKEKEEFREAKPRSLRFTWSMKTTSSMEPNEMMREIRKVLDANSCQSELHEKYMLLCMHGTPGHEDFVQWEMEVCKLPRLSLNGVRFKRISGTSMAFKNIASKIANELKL
Excerpt: as §1

[3] = target: T2, 320 wild-type protein kinases (Homo sapiens, UniProt P36888); settings: singlicate
T2 sequence (P36888 27-993): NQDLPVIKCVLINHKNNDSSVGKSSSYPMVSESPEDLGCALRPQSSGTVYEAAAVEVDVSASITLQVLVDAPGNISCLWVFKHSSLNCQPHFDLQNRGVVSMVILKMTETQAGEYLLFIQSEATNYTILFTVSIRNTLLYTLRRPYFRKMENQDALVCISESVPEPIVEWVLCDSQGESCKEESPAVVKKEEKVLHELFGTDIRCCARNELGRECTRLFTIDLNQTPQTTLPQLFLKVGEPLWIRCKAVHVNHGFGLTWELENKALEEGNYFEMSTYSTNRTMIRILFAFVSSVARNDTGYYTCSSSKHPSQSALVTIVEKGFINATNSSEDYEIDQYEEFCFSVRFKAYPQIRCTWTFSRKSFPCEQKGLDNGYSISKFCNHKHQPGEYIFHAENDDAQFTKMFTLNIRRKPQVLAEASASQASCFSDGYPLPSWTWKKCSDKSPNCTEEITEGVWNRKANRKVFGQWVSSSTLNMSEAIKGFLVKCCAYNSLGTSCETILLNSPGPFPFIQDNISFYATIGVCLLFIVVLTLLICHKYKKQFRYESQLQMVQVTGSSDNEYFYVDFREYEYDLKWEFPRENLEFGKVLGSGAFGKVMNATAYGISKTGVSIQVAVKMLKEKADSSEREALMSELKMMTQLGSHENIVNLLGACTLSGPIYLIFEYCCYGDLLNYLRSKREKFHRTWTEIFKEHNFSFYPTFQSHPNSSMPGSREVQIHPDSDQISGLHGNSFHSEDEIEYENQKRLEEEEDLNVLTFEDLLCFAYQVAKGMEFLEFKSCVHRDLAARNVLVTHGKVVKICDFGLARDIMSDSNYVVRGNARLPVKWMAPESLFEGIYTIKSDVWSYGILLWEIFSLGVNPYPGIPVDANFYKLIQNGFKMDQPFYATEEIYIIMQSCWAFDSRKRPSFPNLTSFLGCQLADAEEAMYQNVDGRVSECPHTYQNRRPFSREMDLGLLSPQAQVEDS
Excerpt: as §1

[4] = target: 320 wild-type protein kinases (Homo sapiens, UniProt P49674); settings: CK1-epsilon, singlicate
Chain of 320 wild-type protein kinases (Homo sapiens, UniProt P49674) (P49674 whole entry): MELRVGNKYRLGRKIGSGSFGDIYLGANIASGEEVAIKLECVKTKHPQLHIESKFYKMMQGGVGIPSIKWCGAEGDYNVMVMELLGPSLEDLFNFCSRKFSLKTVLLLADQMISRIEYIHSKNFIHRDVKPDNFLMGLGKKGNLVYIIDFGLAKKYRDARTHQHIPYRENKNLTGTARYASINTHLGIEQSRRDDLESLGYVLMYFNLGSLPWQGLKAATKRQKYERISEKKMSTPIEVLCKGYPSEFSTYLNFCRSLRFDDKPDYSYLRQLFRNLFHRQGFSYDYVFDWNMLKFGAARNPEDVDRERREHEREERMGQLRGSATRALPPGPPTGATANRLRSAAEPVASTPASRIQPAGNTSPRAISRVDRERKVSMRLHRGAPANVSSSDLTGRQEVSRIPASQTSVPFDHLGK
Excerpt: as §1

[5] = target: 320 wild-type protein kinases (Homo sapiens, UniProt P17612); settings: PKA, singlicate
Excerpt: as §1

[6] = target: 320 wild-type protein kinases (Homo sapiens, UniProt P07332); settings: FES, singlicate
Chain of 320 wild-type protein kinases (Homo sapiens, UniProt P07332) (P07332 whole entry): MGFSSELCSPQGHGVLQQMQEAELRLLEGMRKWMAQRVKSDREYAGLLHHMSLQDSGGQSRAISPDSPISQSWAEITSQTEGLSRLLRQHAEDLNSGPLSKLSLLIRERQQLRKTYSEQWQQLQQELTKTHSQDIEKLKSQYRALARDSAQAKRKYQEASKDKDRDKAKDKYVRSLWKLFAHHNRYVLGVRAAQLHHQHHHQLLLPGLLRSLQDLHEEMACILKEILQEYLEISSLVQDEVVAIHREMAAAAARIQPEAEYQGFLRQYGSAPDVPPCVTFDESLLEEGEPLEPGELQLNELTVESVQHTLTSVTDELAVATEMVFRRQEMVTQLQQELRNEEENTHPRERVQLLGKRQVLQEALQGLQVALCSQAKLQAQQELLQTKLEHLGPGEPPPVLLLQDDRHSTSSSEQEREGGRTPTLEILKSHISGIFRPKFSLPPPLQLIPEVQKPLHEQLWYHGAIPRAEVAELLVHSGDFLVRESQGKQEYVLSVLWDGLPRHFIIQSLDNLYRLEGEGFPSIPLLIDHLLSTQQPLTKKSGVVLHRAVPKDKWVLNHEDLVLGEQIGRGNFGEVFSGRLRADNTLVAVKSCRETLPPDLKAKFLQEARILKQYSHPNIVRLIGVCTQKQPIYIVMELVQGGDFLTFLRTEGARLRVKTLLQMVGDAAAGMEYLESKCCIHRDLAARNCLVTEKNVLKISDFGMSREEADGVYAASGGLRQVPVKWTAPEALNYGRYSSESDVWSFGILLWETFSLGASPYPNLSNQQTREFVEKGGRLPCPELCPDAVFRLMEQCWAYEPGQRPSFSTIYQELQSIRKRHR
Excerpt: as §1

[7] = target: 320 wild-type protein kinases (Homo sapiens, UniProt Q13131); settings: singlicate
Chain of 320 wild-type protein kinases (Homo sapiens, UniProt Q13131) (Q13131 whole entry): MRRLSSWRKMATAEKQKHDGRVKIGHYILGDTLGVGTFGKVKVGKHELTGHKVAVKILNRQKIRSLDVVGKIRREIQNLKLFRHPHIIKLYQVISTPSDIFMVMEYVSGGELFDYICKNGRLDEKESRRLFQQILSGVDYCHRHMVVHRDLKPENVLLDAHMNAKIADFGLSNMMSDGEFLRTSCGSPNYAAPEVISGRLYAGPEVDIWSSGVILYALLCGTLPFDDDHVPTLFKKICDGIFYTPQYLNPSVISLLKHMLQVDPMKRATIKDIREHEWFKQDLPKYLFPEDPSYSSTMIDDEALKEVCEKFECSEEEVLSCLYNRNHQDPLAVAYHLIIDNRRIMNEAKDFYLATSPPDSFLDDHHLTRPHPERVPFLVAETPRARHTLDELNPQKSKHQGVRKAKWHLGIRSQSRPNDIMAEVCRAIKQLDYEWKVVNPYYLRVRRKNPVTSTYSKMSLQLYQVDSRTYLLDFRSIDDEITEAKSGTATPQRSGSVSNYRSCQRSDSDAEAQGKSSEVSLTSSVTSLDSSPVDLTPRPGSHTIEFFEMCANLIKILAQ
Excerpt: as §1

[8] = target: 320 wild-type protein kinases (Homo sapiens, UniProt P08922); settings: kinase ROS, singlicate
Chain of 320 wild-type protein kinases (Homo sapiens, UniProt P08922) (P08922 28-2347): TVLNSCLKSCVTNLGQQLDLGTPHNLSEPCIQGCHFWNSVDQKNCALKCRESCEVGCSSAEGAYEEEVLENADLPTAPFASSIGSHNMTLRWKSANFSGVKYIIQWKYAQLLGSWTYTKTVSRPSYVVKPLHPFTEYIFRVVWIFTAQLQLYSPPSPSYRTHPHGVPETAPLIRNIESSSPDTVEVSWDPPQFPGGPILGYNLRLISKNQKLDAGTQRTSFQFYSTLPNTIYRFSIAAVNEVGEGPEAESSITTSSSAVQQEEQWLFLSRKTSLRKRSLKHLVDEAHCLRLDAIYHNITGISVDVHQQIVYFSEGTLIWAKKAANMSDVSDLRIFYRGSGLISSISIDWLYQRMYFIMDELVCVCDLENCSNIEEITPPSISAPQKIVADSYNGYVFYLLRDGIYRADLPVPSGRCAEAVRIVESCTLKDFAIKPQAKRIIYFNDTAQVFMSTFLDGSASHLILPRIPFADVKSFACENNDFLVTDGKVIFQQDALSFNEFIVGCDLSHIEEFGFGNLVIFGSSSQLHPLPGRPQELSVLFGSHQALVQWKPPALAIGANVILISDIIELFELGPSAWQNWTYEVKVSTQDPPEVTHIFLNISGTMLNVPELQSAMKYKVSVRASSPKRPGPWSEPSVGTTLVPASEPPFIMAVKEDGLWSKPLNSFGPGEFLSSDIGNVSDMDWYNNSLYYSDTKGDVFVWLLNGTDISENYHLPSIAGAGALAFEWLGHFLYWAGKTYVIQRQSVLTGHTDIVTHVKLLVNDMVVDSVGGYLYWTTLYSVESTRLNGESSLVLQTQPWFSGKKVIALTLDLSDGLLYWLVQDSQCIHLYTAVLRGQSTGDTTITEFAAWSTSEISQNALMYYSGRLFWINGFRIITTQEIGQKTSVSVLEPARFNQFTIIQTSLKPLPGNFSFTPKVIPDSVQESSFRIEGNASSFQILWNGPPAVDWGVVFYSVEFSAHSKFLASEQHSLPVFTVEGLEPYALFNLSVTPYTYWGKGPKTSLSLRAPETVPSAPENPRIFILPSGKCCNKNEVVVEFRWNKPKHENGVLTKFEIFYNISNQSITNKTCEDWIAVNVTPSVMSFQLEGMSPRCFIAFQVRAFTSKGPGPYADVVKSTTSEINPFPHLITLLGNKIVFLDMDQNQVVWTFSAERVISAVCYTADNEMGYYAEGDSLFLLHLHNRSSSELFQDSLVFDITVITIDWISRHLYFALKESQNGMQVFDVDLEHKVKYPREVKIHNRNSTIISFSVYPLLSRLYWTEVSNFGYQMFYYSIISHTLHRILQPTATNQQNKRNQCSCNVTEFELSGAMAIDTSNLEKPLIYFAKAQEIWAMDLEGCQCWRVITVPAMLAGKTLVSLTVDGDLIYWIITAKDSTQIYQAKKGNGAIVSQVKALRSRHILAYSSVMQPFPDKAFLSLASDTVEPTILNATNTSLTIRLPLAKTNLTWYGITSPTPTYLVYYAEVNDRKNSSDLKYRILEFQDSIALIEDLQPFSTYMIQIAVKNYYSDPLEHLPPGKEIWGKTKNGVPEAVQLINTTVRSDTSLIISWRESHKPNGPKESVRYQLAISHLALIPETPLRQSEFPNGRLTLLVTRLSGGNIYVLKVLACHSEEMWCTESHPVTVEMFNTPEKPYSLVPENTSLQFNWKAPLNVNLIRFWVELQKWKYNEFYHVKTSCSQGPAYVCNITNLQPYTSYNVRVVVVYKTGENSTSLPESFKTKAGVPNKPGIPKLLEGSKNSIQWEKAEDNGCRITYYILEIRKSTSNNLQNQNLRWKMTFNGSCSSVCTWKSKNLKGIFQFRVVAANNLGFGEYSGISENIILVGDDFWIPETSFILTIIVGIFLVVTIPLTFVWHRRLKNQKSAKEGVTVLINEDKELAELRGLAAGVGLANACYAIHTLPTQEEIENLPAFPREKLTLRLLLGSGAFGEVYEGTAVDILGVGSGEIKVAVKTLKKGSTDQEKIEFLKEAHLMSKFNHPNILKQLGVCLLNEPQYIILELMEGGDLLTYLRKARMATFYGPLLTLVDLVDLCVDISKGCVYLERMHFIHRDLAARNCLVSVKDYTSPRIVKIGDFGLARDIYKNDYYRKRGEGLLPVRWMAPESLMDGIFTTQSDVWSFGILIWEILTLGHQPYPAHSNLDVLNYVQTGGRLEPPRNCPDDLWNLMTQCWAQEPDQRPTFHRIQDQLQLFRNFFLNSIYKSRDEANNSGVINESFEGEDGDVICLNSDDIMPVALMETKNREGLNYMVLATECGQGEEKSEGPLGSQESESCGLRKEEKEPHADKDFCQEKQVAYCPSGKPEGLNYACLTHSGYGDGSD
Excerpt: as §1

Compound	Residual activity ([1]; ARK5, 1.0E-06 M)	Residual activity ([1]; ARK5, 1.0E-07 M)	Residual activity ([2]; MARK2, 1.0E-06 M)	Residual activity ([2]; MARK2, 1.0E-07 M)	Residual activity ([3]; FLT3, 1.0E-06 M)	Residual activity ([3]; FLT3, 1.0E-07 M)	Residual activity ([4]; 1.0E-06 M)	Residual activity ([4]; 1.0E-07 M)	Residual activity ([5]; 1.0E-06 M)	Residual activity ([5]; 1.0E-07 M)	Residual activity ([6]; 1.0E-06 M)	Residual activity ([6]; 1.0E-07 M)	Residual activity ([7]; AMPK-alpha1 aa1-550, 1.0E-06 M)	Residual activity ([7]; AMPK-alpha1 aa1-550, 1.0E-07 M)	Residual activity, ROS ([8]; assay conc. 1.0E-06 M)	Residual activity, ROS ([8]; assay conc. 1.0E-07 M)
C#Cc1cc(Nc2ncnc3cc(I)ccc23)ccc1Cl [Compound 41]	108 % of control	110 % of control	114 % of control	104 % of control	94 % of control	95 % of control	118 % of control	124 % of control	82 % of control	88 % of control	93 % of control	118 % of control	107 % of control	106 % of control	88 % of control	95 % of control
C#Cc1cc(Nc2ncnc3cc(OC)c(OC)cc23)ccc1Cl [Compound 45]	114 % of control	104 % of control	90 % of control	103 % of control	56 % of control	88 % of control	120 % of control	124 % of control	90 % of control	93 % of control	97 % of control	107 % of control	98 % of control	91 % of control	89 % of control	96 % of control
